# Like-named read-outs stand apart in the source and are kept apart here.
# What was measured:
# [1] = target: T1, Motilin Receptor (Oryctolagus cuniculus, UniProt G1T803); test: Tissue based assay for motilin agonist potency (rabbit duodenum contractility); assay type: cell-based
# T1 construct: strips of longitudinal smooth muscle were sliced from the segments; from tissue; host or cells: rabbit duodenum longitudinal smooth muscle strips
# Procedure: The motilin agonist potencies of compounds of this invention were evaluated using a tissue based assay, using rabbit duodenum tissue-based contractility assay, generally following the procedure of Depoortere et al., J. Gastrointestinal Motility, 1, 150-159 (1989), the disclosure of which is incorporated herein by reference. Briefly, this method measures the ability of a compound to induce contractions in rabbit duodenal tissue, a motilin receptor-bearing tissue contractilely responsive to motilin.
# Strips of rabbit duodenum were tested and qualified for use in the assay by as follows. Segments of rabbit duodenum, 20-30 cm distal to the pylorus were split longitudinally. The mucosa was removed and 2×2×15 mm strips of longitudinal smooth muscle were sliced from the segments. The strips were bathed in oxygenated Krebs solution at 37° C., with 1.5 g of tension, and contractions measured auxotonically.
# The carbachol was then washed away by changing the organ bath buffer twice. The strips were washed again 20±5 minutes following the carbachol contraction. Following this last wash a dose response study was initiated within 10±5 min. Each compound tested was dissolved in dimethylsulfoxide (DMSO) to a final concentration of 10 mM. A series of seven 10× serial dilutions in water was prepared, so that the concentration of the seventh serial dilution was 1.0×10^−6 mM. The first through fifth serial dilutions of the compound were applied, starting with 200 μL of the most dilute solution. After each application, there was a wait of 2±0.5 min, until the response was stable, before the application of the next dose (the next higher concentration serial dilution). The dose was increased in 10-fold increments until a small response was observed. Subsequent doses were the increased in 2- to 5-fold increments, until the maximum response was obtained. At 2±0.5 min after the last drug addition, the strips were dosed with 1 μM carbachol.
# The EC50 (concentration producing a half-maximal effect) was calculated as follows. The basal tension was subtracted from the compound-induced tension for each reading. The data points were normalized against the response obtained from 1 μM carbachol at the end of the experiment. The concentration of compound was plotted against the response and fitted to the following equation: R=(Rmax·C)/(EC50+C) where R is the contraction response, Rmax is the maximal contraction response, and C is the concentration of compound. Both R and Rmax are expressed as a fraction of the 1 μM carbachol contraction and range from 0 to 1.
# [2] = test system: Streptococcus pneumoniae ATCC 6301; test: Evaluation of antibacterial activity (MIC, serial dilutions on 96-well microtiter plates); assay type: cell-based; conditions: ATCC6301, read-out: Antibacterial Activity (MIC, μg/mL)
# [3] = rabbit duodenum strips, contraction normalized to 1 μM carbachol, read-out: Motilin Receptor Agonist Activity (EC50)
# T1 sequence (G1T803 1-400): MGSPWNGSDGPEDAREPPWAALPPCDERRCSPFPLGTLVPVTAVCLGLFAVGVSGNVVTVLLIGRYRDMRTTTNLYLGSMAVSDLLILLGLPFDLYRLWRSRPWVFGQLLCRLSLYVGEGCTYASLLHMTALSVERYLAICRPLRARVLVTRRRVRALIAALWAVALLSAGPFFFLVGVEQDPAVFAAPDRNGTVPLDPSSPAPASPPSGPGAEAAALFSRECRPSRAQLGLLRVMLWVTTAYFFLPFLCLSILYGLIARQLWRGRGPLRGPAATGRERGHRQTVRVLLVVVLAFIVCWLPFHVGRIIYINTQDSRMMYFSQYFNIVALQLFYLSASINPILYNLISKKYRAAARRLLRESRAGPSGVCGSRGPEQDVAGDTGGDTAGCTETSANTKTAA
SMILES,"EC50 [1, 3]",MIC [2],EC50 [1]
CC[C@H]1OC(=O)[C@H](C)[C@@H](O[C@H]2C[C@@](C)(OC)[C@@H](O)[C@H](C)O2)[C@H](C)[C@@H](O[C@@H]2O[C@H](C)C[C@H](N(C)C(C)C)[C@H]2O)[C@](C)(O)C[C@@H](C)[C@H](NS(=O)(=O)CC)[C@H](C)[C@@H](O)[C@]1(C)O [Compound A-40],350 nM,128 µg/mL,
CC[C@H]1OC(=O)[C@H](C)[C@@H](O[C@H]2C[C@@](C)(OC)[C@@H](O)[C@H](C)O2)[C@H](C)[C@@H](O[C@@H]2O[C@H](C)C[C@H](N(C)C(C)C)[C@H]2O)[C@](C)(O)C[C@@H](C)[C@H](OCCCCCC(N)=O)[C@H](C)[C@@H](O)[C@]1(C)O [Compound A-50],170 nM,> 128 µg/mL,
CCNC(=O)CO[C@@H]1[C@H](C)[C@@H](O)[C@](C)(O)[C@@H](CC)OC(=O)[C@H](C)[C@@H](O[C@H]2C[C@@](C)(OC)[C@@H](O)[C@H](C)O2)[C@H](C)[C@@H](O[C@@H]2O[C@H](C)C[C@H](N(C)C(C)C)[C@H]2O)[C@](C)(O)C[C@H]1C [Compound A-31],67 nM,> 128 µg/mL,
CC[C@H]1OC(=O)[C@H](C)[C@@H](O[C@H]2C[C@@](C)(OC)[C@@H](O)[C@H](C)O2)[C@H](C)[C@@H](O[C@@H]2O[C@H](C)C[C@H](N(C)C(C)C)[C@H]2O)[C@](C)(O)C[C@@H](C)[C@H](OC(=O)N(C)C)[C@H](C)[C@@H](O)[C@]1(C)O [Compound A-18],310 nM,128 µg/mL,
CCOC(=O)CO[C@@H]1[C@H](C)[C@@H](O)[C@](C)(O)[C@@H](CC)OC(=O)[C@H](C)[C@@H](O[C@H]2C[C@@](C)(OC)[C@@H](O)[C@H](C)O2)[C@H](C)[C@@H](O[C@@H]2O[C@H](C)C[C@H](N(C)C(C)C)[C@H]2O)[C@](C)(O)C[C@H]1C [Compound A-8],88 nM,128 µg/mL,
CC[C@H]1OC(=O)[C@H](C)[C@@H](O[C@H]2C[C@@](C)(OC)[C@@H](O)[C@H](C)O2)[C@H](C)[C@@H](O[C@@H]2O[C@H](C)C[C@H](N(C)C[C@H](C)O)[C@H]2O)[C@](C)(O)C[C@@H](C)[C@H](OCCOC)[C@H](C)[C@@H](O)[C@]1(C)O [Compound A-6],1100 nM,128 µg/mL,
CC[C@H]1OC(=O)[C@H](C)[C@@H](O[C@H]2C[C@@](C)(OC)[C@@H](O)[C@H](C)O2)[C@H](C)[C@@H](O[C@@H]2O[C@H](C)C[C@H](N(C)C(C)C)[C@H]2O)[C@](C)(O)C[C@@H](C)[C@H](NS(=O)(=O)C2CC2)[C@H](C)[C@@H](O)[C@]1(C)O [Compound A-41],170 nM,128 µg/mL,
CC[C@H]1OC(=O)[C@H](C)[C@@H](O[C@H]2C[C@@](C)(OC)[C@@H](O)[C@H](C)O2)[C@H](C)[C@@H](O[C@@H]2O[C@H](C)C[C@H](N(C)C3CCC3)[C@H]2O)[C@](C)(O)C[C@@H](C)[C@H](NS(C)(=O)=O)[C@H](C)[C@@H](O)[C@]1(C)O [Compound A-39],280 nM,> 128 µg/mL,
CC[C@H]1OC(=O)[C@H](C)[C@@H](O[C@H]2C[C@@](C)(OC)[C@@H](O)[C@H](C)O2)[C@H](C)[C@@H](O[C@@H]2O[C@H](C)C[C@H](N(C)C(C)C)[C@H]2O)[C@](C)(O)C[C@@H](C)[C@H](OCCO)[C@H](C)[C@@H](O)[C@]1(C)O [Compound A-3],54 nM,64 µg/mL,
CC[C@H]1OC(=O)[C@H](C)[C@@H](O[C@H]2C[C@@](C)(OC)[C@@H](O)[C@H](C)O2)[C@H](C)[C@@H](O[C@@H]2O[C@H](C)C[C@H](N(C)C(C)C)[C@H]2O)[C@](C)(O)C[C@@H](C)[C@H](OCCNC(=O)c2ccc3[nH]cnc3c2)[C@H](C)[C@@H](O)[C@]1(C)O [Compound A-58],37 nM,128 µg/mL,
CC[C@H]1OC(=O)[C@H](C)[C@@H](O[C@H]2C[C@@](C)(OC)[C@@H](O)[C@H](C)O2)[C@H](C)[C@@H](O[C@@H]2O[C@H](C)C[C@H](N(C)C(C)C)[C@H]2O)[C@](C)(O)C[C@@H](C)[C@H](NS(=O)(=O)C(F)(F)F)[C@H](C)[C@@H](O)[C@]1(C)O [Compound A-43],330 nM,64 µg/mL,
CC[C@H]1OC(=O)[C@H](C)[C@@H](O[C@H]2C[C@@](C)(OC)[C@@H](O)[C@H](C)O2)[C@H](C)[C@@H](O[C@@H]2O[C@H](C)C[C@H](N(C)C3CCC3)[C@H]2O)[C@](C)(O)C[C@@H](C)[C@H](NS(=O)(=O)C2CC2)[C@H](C)[C@@H](O)[C@]1(C)O [Compound A-42],340 nM,> 128 µg/mL,
CC[C@H]1OC(=O)[C@H](C)[C@@H](O[C@H]2C[C@@](C)(OC)[C@@H](O)[C@H](C)O2)[C@H](C)[C@@H](O[C@@H]2O[C@H](C)C[C@H](N(C)C(C)C)[C@H]2O)[C@](C)(O)C[C@@H](C)[C@H](OCC(=O)NCc2ccccc2)[C@H](C)[C@@H](O)[C@]1(C)O [Compound A-59],79 nM,128 µg/mL,
CC[C@H]1OC(=O)[C@H](C)[C@@H](O[C@H]2C[C@@](C)(OC)[C@@H](O)[C@H](C)O2)[C@H](C)[C@@H](O[C@@H]2O[C@H](C)C[C@H](N(C)C[C@H](C)O)[C@H]2O)[C@](C)(O)C[C@@H](C)[C@H](OCC(=O)O)[C@H](C)[C@@H](O)[C@]1(C)O [Compound A-11],740 nM,> 128 µg/mL,
"CC[C@H]1OC(=O)[C@H](C)[C@@H](O[C@H]2C[C@@](C)(OC)[C@@H](O)[C@H](C)O2)[C@H](C)[C@@H](O[C@@H]2O[C@H](C)C[C@H](N(C)C)[C@H]2O)[C@](C)(O)C[C@@H](C)C(=O)[C@H](C)[C@@H](O)[C@]1(C)O [Erythromycin A, reference compound]",,0.0025 µg/mL,1200 nM
CCNC(=O)NCCO[C@@H]1[C@H](C)[C@@H](O)[C@](C)(O)[C@@H](CC)OC(=O)[C@H](C)[C@@H](O[C@H]2C[C@@](C)(OC)[C@@H](O)[C@H](C)O2)[C@H](C)[C@@H](O[C@@H]2O[C@H](C)C[C@H](N(C)C(C)C)[C@H]2O)[C@](C)(O)C[C@H]1C [Compound A-54],100 nM,> 128 µg/mL,
CC[C@H]1OC(=O)[C@H](C)[C@@H](O[C@H]2C[C@@](C)(OC)[C@@H](O)[C@H](C)O2)[C@H](C)[C@@H](O[C@@H]2O[C@H](C)C[C@H](N(C)C(C)C)[C@H]2O)[C@](C)(O)C[C@@H](C)[C@H](OCC(=O)O)[C@H](C)[C@@H](O)[C@]1(C)O [Compound A-56],150 nM,128 µg/mL,
CC[C@H]1OC(=O)[C@H](C)[C@@H](O[C@H]2C[C@@](C)(OC)[C@@H](O)[C@H](C)O2)[C@H](C)[C@@H](O[C@@H]2O[C@H](C)C[C@H](N(C)C(C)C)[C@H]2O)[C@](C)(O)C[C@@H](C)[C@H](OCc2nccs2)[C@H](C)[C@@H](O)[C@]1(C)O [Compound A-29],290 nM,128 µg/mL,
CC[C@H]1OC(=O)[C@H](C)[C@@H](O[C@H]2C[C@@](C)(OC)[C@@H](O)[C@H](C)O2)[C@H](C)[C@@H](O[C@@H]2O[C@H](C)C[C@H](N(C)C(C)C)[C@H]2O)[C@](C)(O)C[C@@H](C)[C@H](OCC(=O)NCCN2CCOCC2)[C@H](C)[C@@H](O)[C@]1(C)O [Compound A-48],140 nM,64 µg/mL,
CC[C@H]1OC(=O)[C@H](C)[C@@H](O[C@H]2C[C@@](C)(OC)[C@@H](O)[C@H](C)O2)[C@H](C)[C@@H](O[C@@H]2O[C@H](C)C[C@H](N(C)CC(C)(C)O)[C@H]2O)[C@](C)(O)C[C@@H](C)[C@H](NS(C)(=O)=O)[C@H](C)[C@@H](O)[C@]1(C)O [Compound A-37],52 nM,64 µg/mL,
CC[C@H]1OC(=O)[C@H](C)[C@@H](O[C@H]2C[C@@](C)(OC)[C@@H](O)[C@H](C)O2)[C@H](C)[C@@H](O[C@@H]2O[C@H](C)C[C@H](N(C)C(C)C)[C@H]2O)[C@](C)(O)C[C@@H](C)[C@H](OS(=O)(=O)N(C)C)[C@H](C)[C@@H](O)[C@]1(C)O [Compound A-19],91 nM,128 µg/mL,
CC[C@H]1OC(=O)[C@H](C)[C@@H](O[C@H]2C[C@@](C)(OC)[C@@H](O)[C@H](C)O2)[C@H](C)[C@@H](O[C@@H]2O[C@H](C)C[C@H](N(C)C3CCC3)[C@H]2O)[C@](C)(O)C[C@@H](C)[C@H](OCC(N)=O)[C@H](C)[C@@H](O)[C@]1(C)O [Compound A-13],220 nM,> 128 µg/mL,
CC[C@H]1OC(=O)[C@H](C)[C@@H](O[C@H]2C[C@@](C)(OC)[C@@H](O)[C@H](C)O2)[C@H](C)[C@@H](O[C@@H]2O[C@H](C)C[C@H](N(C)C3CCC3)[C@H]2O)[C@](C)(O)C[C@@H](C)[C@H](OC(C)=O)[C@H](C)[C@@H](O)[C@]1(C)O [Compound A-24],860 nM,> 128 µg/mL,

# Source: US7582611B2, “Motilide compounds” (Pfizer Inc., priority 2005, dated 2009)
